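Growth conditions: 96-well plates. Treatment: test compound, 48 hours, 5 concentrations. Analysis: linear interpolation between bracketing concentrations; unreached endpoints set to highest concentration. TGI: concentration producing complete growth inhibition.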
Assays:
Experiment in all cases: growth of human tumour cells (NCI), 48 h
PC-3 prostate = test system: PC-3 prostate
UO-31 renal = test system: UO-31 renal
SR leukemia = test system: SR leukemia
SW-620 colon = test system: SW-620 colon
OVCAR-5 ovarian = test system: OVCAR-5 ovarian
BT-549 breast = test system: BT-549 breast
HCC-2998 colon = test system: HCC-2998 colon
NCI-H226 lung = test system: NCI-H226 lung
SNB-19 CNS = test system: SNB-19 CNS
HL-60(TB) leukemia = test system: HL-60(TB) leukemia

Compound | TGI (PC-3 prostate) [µM] | TGI (UO-31 renal) [µM] | TGI (SR leukemia) [µM] | TGI (SW-620 colon) [µM] | TGI (OVCAR-5 ovarian) [µM] | TGI (BT-549 breast) [µM] | TGI (HCC-2998 colon) [µM] | TGI (NCI-H226 lung) [µM] | TGI (SNB-19 CNS) [µM] | TGI (HL-60(TB) leukemia) [µM]
Cc1noc2nnn(-c3ccc(Cl)cc3)c(=O)c12 | 19.2 | 8.63 | 3.78 | 5.41 | 20 | 13.5 | 9.7 | 9.83 | 26.1 | 3.57
O=C(/C=C/c1cc(O)c(O)cc1O)OCCc1ccccc1 | 34.2 | 19.7 | 30.6 | 21.2 | > 59.2 | 62.1 | > 100 | > 100 | > 100 | 3.73
CCCCCCCCCCCCOP(=O)(O)OCC(N)C(=O)O (stereo not given) | 35.1 | 28.9 | 90 | > 100 | > 100 | 64 | > 100 | > 100 | 44 | 36.8
COc1ccc2oc(OC)c(CC=C(C)C)c(=O)c2c1C | > 100 | > 100 | > 100 | > 100 | > 100 | > 100 | > 100 | > 100 | > 100 | > 100
O=C/C=C/c1ccco1 | > 100 | > 100 | > 100 | > 100 | > 100 | > 100 | > 100 | > 100 | > 100 | > 100
CCN1CCN(c2nc3ccc([N+](=O)[O-])cc3nc2C(=O)c2ccccc2)CC1 | 32.3 | 25.2 | 31.8 | 41.7 | 36.1 | 16.9 | 28.6 | 33.3 | 71.2 | 61.9
CCOC(=O)C(Cl)(NC(=O)c1c(F)c(F)c(F)c(F)c1F)C(F)(F)F (stereo not given) | > 100 | > 100 | > 100 | > 100 | > 100 | > 100 | > 100 | > 100 | > 100 | > 100
COC(=O)C1CCC(=O)N1C(c1ccc(OC)cc1)c1ccc(OC)cc1 (stereo not given) | > 100 | > 100 | > 100 | > 100 | > 100 | > 100 | > 100 | > 100 | > 100 | > 100
O=C(/C=C/c1ccc(/C=C/C(=O)c2ccc(O)cc2)cc1)c1ccc(O)cc1 | > 100 | > 100 | > 100 | > 100 | > 100 | > 100 | > 100 | > 100 | > 100 | > 100
Cc1cc(Cc2c(F)c(F)c(C(c3cc(C)no3)c3c(F)c(F)c(F)c(F)c3F)c(F)c2F)on1 (stereo not given) | > 100 | > 100 | > 100 | > 100 | > 100 | > 100 | > 100 | > 100 | > 100 | > 39.6
c1ccc2c(c1)ncn2C1CCCCO1 (stereo not given) | > 100 | > 100 | > 100 | > 100 | > 100 | > 100 | > 100 | > 100 | > 100 | > 100
COC(=O)c1ccc(C)cc1/C=C1\Cc2ccc(C)cc2C1=O | > 100 | 26.3 | 9.13 | 51.3 | 42.3 | 30 | 38.4 | 24.9 | 68.7 | 18.2
N#Cc1c(N)sc2c1-c1ccccc1OC2 | > 100 | 70 | 47.9 | > 100 | > 100 | > 100 | > 100 | > 100 | > 100 | 82.1
NC1CC2NC3CCCCC3NC2CC1N (stereo not given) | > 100 | > 100 | > 100 | > 100 | > 100 | > 100 | > 100 | > 100 | > 100 | 94.9
COc1ccc(C(SCCO)(c2ccccc2)c2ccccc2)cc1 | 25.4 | 28.1 | > 100 | 81.8 | 36.4 | 32.4 | 31.1 | 30.2 | 29.1 | 67
COC1(OC)CC(CO)(CNc2cc(Cl)nc(N)n2)C1 | > 100 | > 100 | > 100 | > 100 | > 100 | > 100 | > 100 | > 100 | > 100 | > 100
C#CC1(O)C(COP(=O)(O)OCC2OC(n3ccc(NCCCCCCCCCCCCCCCCCC)nc3=O)C(O)C2O)OC(n2ccc(N)nc2=O)C1O (stereo not given) | 31.7 | 2.53 | 11.7 | > 50 | 60.5 | 29.8 | > 34.5 | > 46.4 | 40.6 | 19.5

Reference: PubChem BioAssay (NCI)
